Values of other authors in patent US20030203963A1, “Antimicrobial agent” (priority 2001, published 2003).

Assays:
Details in all cases: cited from earlier work
Salmonella = tested on: Salmonella
[1] = tested on: yeasts and moulds as well as catalase-positive bacteria
bacteria = tested on: bacteria
[2] = tested on: Gram-positive bacteria, yeasts, and moulds
[3] = tested on: aerobic, Gram-negative bacteria

Nisin
Inhibition of Salmonella (Salmonella; in food): unable to inhibit

C/C=C/C=C/C(=O)O [Sorbic Acid]
Effective concentration [1]: 500-3000 ppm

O=NO [nitrite]
Concentration at which Salmonella is inhibited (Salmonella; meat products): > 1,000 ppm

Propionic Acid and Propionate
Concentrations necessary for inhibition of bacteria (bacteria): > 16000 ppm

O=S=O [Sulphur Dioxide]
Effective concentrations [2]: 800-2000 ppm | Effective concentrations for inhibition [3]: 250-500 ppm
